Laboratory results published in patent US10988523B2, “Modified lipidated Relaxin B chain peptides and their therapeutic use” (Sanofi, priority 2018, dated 2021).
*1 amine or outer side, *2 acyl side, *3 side chain or, on linkers, in order; H or OH if unused. Where a SMILES comes first, the peptide text is derived from it. Side-chain parts run from the residue outwards. [ ]: non-standard residue; d: D form. The star is where a group is joined. X8 = CCCCCCCCCCCCCCCC(=O)N[C@@H](CCC(=O)N[C@@H](CCC(=O)N[C@@H](CCC(=O)NCCCOCCOCCOCCCNC(=O)CCC(=O)NCCCOCCOCCOCCCNC(=O)CCC(=O)NCCCOCCOCCOCCCN*)C(=O)O)C(=O)O)C(=O)O; γGlu = O=C(O)[C@H](CCC(=O)[*:2])N[*:1]; Stearoyl = CCCCCCCCCCCCCCCCCC(=O)*; Palmitoyl = CCCCCCCCCCCCCCCC(=O)*; Suc = O=C(CCC(=O)[*:2])[*:1]; αMeK = C[C@](N)(CCCCN)C(=O)O; Nle = CCCC[C@H](N)C(=O)O; AEEA = NCCOCCOCC(=O)O; Aib = CC(C)(N)C(=O)O

Target: T1, RXFP1 (Homo sapiens, UniProt Q9HBX9)
T1 construct: OVCAR5 cells expressing endogenous RXFP1; endogenous in cells; host or cells: OVCAR5 cells
T1 sequence (Q9HBX9 1-757): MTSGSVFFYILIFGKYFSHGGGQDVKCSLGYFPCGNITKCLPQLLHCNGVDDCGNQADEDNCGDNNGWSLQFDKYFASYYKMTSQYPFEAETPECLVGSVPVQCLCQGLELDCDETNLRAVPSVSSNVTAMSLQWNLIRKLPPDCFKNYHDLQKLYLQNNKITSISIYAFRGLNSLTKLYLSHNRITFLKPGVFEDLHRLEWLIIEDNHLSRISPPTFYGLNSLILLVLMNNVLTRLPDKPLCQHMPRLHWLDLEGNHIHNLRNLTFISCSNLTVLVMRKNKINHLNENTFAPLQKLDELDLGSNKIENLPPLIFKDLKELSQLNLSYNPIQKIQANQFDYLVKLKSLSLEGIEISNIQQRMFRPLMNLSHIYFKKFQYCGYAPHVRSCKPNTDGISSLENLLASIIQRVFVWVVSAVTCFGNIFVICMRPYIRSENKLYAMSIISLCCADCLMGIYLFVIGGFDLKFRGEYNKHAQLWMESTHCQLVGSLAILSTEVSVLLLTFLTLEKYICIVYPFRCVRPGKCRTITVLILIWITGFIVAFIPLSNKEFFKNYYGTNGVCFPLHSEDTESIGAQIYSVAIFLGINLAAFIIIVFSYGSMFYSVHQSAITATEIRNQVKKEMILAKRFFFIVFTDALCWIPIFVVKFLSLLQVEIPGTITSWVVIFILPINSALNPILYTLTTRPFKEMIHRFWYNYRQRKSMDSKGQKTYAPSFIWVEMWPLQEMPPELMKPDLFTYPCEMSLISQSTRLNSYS
Test: OVCAR5 cAMP assay (HTRF), RXFP1 agonist activity
Format: cell-based
Details: for EC50: OVCAR5 cells, cAMP HTRF, read-out: EC50 (nM), OVCAR 5 cells (cAMP); for Emax: OVCAR-5, maximal cAMP relative to H2-relaxin maximum (100%), read-out: EMax, OVCAR 5 cells (cAMP)
Summary of the method: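 cAMP accumulation readout: after 1 mM IBMX for 40 min, endogenous-RXFP1 OVCAR5 cells got rising peptide concentrations without FCS, 30 min, 37° C, then lysis with HTRF cAMP reagents. Nonlinear regression gave EC50; Emax expressed relative to H2-relaxin maximum, same occasion.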

EC50 [nM] | Emax [%] | SMILES
0.08 | 94 | CCCCCCCCCCCCCCCC(=O)N[C@@H](CCC(=O)N[C@@H](CCC(=O)N[C@@H](CCC(=O)NCCCOCCOCCOCCCNC(=O)CCC(=O)NCCCOCCOCCOCCCNC(=O)CCC(=O)NCCCOCCOCCOCCCNC(=O)CCC(=O)NCCCC[C@H](NC(=O)[C@H](CCCCNC(C)=O)NC(=O)[C@H](C)NC(=O)[C@H](CCCNC(=N)N)NC(=O)[C@](C)(CCCCN)NC(=O)[C@H](CO)NC(=O)[C@H](Cc1ccccc1)NC(=O)[C@@H](NC(=O)[C@H](CO)NC(=O)[C@H](CCCC)NC(=O)CNC(=O)[C@H](CCC(=O)O)NC(=O)C(C)(C)NC(=O)C(C)(C)NC(=O)[C@@H](NC(=O)[C@H](CCCCNC(C)=O)NC(=O)[C@H](C)NC(=O)[C@H](CCCNC(=N)N)NC(=O)[C@@H](NC(=O)[C@H](CCCCN)NC(=O)[C@H](CCC(=O)O)NC(=O)[C@H](CCCNC(=N)N)NC(=O)CNC(=O)[C@H](CCC(=O)O)NC(=O)[C@H](CC(C)C)NC(C)=O)C(C)C)[C@@H](C)CC)[C@@H](C)O)C(N)=O)C(=O)O)C(=O)O)C(=O)O [compound 183] (Ac-LEGREKVRAK(Ac)I[Aib][Aib]EG[Nle]STFS[αMeK]RAK(Ac)K([Suc-X8])-NH2)
0.3 | 92 | CCCCCCCCCCCCCCCC(=O)N[C@@H](CCC(=O)NCCCC[C@H](NC(=O)CC[C@H](NC(=O)CC[C@H](NC(=O)CC[C@H](NC(=O)COCCOCCNC(=O)COCCOCCNC(=O)COCCOCCNC(=O)COCCOCCNC(=O)[C@H](CCCCNC(C)=O)NC(=O)[C@H](C)NC(=O)[C@H](C)NC(=O)[C@](C)(CCCCN)NC(=O)[C@H](CO)NC(=O)[C@H](Cc1ccccc1)NC(=O)[C@@H](NC(=O)[C@H](CO)NC(=O)[C@H](CCCC)NC(=O)CNC(=O)[C@H](CCC(=O)O)NC(=O)C(C)(C)NC(=O)C(C)(C)NC(=O)[C@@H](NC(=O)[C@H](CCCCNC(C)=O)NC(=O)[C@H](C)NC(=O)[C@H](CCCNC(=N)N)NC(=O)[C@@H](NC(=O)[C@H](CCCCN)NC(=O)[C@H](CCC(=O)O)NC(=O)[C@H](CCCNC(=N)N)NC(=O)CNC(=O)[C@H](CCC(=O)O)NC(=O)[C@H](CC(C)C)NC(C)=O)C(C)C)[C@@H](C)CC)[C@@H](C)O)C(=O)O)C(=O)O)C(=O)O)C(N)=O)C(=O)O [compound 139] (Ac-LEGREKVRAK(Ac)I[Aib][Aib]EG[Nle]STFS[αMeK]AAK(Ac)[AEEA][AEEA][AEEA][AEEA][γGlu][γGlu][γGlu]K([γGlu-Palmitoyl])-NH2)
4.4 | 93 | CCCCCCCCCCCCCCCC(=O)N[C@@H](CCC(=O)N[C@@H](CCC(=O)NCCOCCOCC(=O)NCCOCCOCC(=O)NCCCC[C@H](NC(=O)[C@H](CCCCN)NC(=O)[C@H](CCCNC(=N)N)NC(=O)C(C)(C)NC(=O)[C@H](CO)NC(=O)[C@H](Cc1c[nH]c2ccccc12)NC(=O)[C@@H](NC(=O)[C@H](CO)NC(=O)[C@H](CCCC)NC(=O)CNC(=O)[C@H](CCC(=O)O)NC(=O)C(C)(C)NC(=O)C(C)(C)NC(=O)[C@@H](NC(=O)[C@H](C)NC(=O)[C@H](C)NC(=O)[C@H](CCCNC(=N)N)NC(=O)[C@@H](NC(=O)[C@H](CCCCN)NC(=O)[C@H](CCC(=O)O)NC(=O)[C@H](CCCNC(=N)N)NC(=O)CNC(=O)[C@H](CCC(=O)O)NC(=O)[C@H](CC(C)C)NC(=O)[C@H](CCC(=O)O)NC(C)=O)C(C)C)[C@@H](C)CC)[C@@H](C)O)C(N)=O)C(=O)O)C(=O)O [compound 57] (Ac-ELEGREKVRAAI[Aib][Aib]EG[Nle]STWS[Aib]RKK([AEEA-AEEA-γGlu-γGlu-Palmitoyl])-NH2)
0.11 | 74 | CCCCCCCCCCCCCCCCCC(=O)N[C@@H](CCC(=O)N[C@@H](CCC(=O)N[C@@H](CCC(=O)N[C@@H](CCC(=O)NCCOCCOCC(=O)NCCOCCOCC(=O)NCCOCCOCC(=O)NCCCC[C@H](NC(=O)[C@H](CCCCN)NC(=O)[C@H](CCCCN)NC(=O)[C@H](CCCNC(=N)N)NC(=O)C(C)(C)NC(=O)[C@H](CO)NC(=O)[C@H](Cc1c[nH]c2ccccc12)NC(=O)[C@@H](NC(=O)[C@H](CO)NC(=O)[C@H](CCCC)NC(=O)CNC(=O)[C@H](CCC(=O)O)NC(=O)C(C)(C)NC(=O)C(C)(C)NC(=O)[C@@H](NC(=O)[C@H](CCC(N)=O)NC(=O)[C@H](C)NC(=O)[C@H](CCCNC(=N)N)NC(=O)[C@@H](NC(=O)[C@H](CCCCN)NC(=O)[C@H](CCC(=O)O)NC(=O)[C@H](CCCNC(=N)N)NC(=O)CNC(=O)[C@H](CCC(=O)O)NC(=O)[C@H](CC(C)C)NC(C)=O)C(C)C)[C@@H](C)CC)[C@@H](C)O)C(N)=O)C(=O)O)C(=O)O)C(=O)O)C(=O)O [compound 88] (Ac-LEGREKVRAQI[Aib][Aib]EG[Nle]STWS[Aib]RKKK([AEEA-AEEA-AEEA-γGlu-γGlu-γGlu-γGlu-Stearoyl])-NH2)
0.38 | 105 | CCCCCCCCCCCCCCCC(=O)N[C@@H](CCC(=O)NCCOCCOCC(=O)N[C@@H](CCC(=O)N[C@@H](CCC(=O)NCCOCCOCC(=O)NCCOCCOCC(=O)NCCCC[C@H](NC(=O)[C@H](CCCCNC(C)=O)NC(=O)[C@H](CCCCN)NC(=O)[C@H](CCCNC(=N)N)NC(=O)C(C)(C)NC(=O)[C@H](CO)NC(=O)[C@H](Cc1c[nH]c2ccccc12)NC(=O)[C@@H](NC(=O)[C@H](CO)NC(=O)[C@H](CCCC)NC(=O)CNC(=O)[C@H](CCC(=O)O)NC(=O)C(C)(C)NC(=O)C(C)(C)NC(=O)[C@@H](NC(=O)[C@H](CCCCNC(C)=O)NC(=O)[C@H](C)NC(=O)[C@H](CCCNC(=N)N)NC(=O)[C@@H](NC(=O)[C@H](CCCCN)NC(=O)[C@H](CCC(=O)O)NC(=O)[C@H](CCCNC(=N)N)NC(=O)CNC(=O)[C@H](CCC(=O)O)NC(=O)[C@H](CC(C)C)NC(C)=O)C(C)C)[C@@H](C)CC)[C@@H](C)O)C(N)=O)C(=O)O)C(=O)O)C(=O)O [compound 165] (Ac-LEGREKVRAK(Ac)I[Aib][Aib]EG[Nle]STWS[Aib]RKK(Ac)K([AEEA-AEEA-γGlu-γGlu-AEEA-γGlu-Palmitoyl])-NH2)
0.21 | 92 | CCCCCCCCCCCCCCCCCC(=O)N[C@@H](CCC(=O)N[C@@H](CCC(=O)N[C@@H](CCC(=O)N[C@@H](CCC(=O)N[C@@H](CCC(=O)NCCOCCOCC(=O)NCCOCCOCC(=O)NCCOCCOCC(=O)NCCCC[C@H](NC(=O)[C@H](CCCCN)NC(=O)[C@H](CCCCN)NC(=O)[C@H](CCCNC(=N)N)NC(=O)C(C)(C)NC(=O)[C@H](CO)NC(=O)[C@H](Cc1c[nH]c2ccccc12)NC(=O)[C@@H](NC(=O)[C@H](CO)NC(=O)[C@H](CCC(N)=O)NC(=O)CNC(=O)[C@H](CCC(=O)O)NC(=O)C(C)(C)NC(=O)C(C)(C)NC(=O)[C@@H](NC(=O)[C@H](CCCCNC(C)=O)NC(=O)[C@H](C)NC(=O)[C@H](CCCNC(=N)N)NC(=O)[C@@H](NC(=O)[C@H](CCCCN)NC(=O)[C@H](CCC(=O)O)NC(=O)[C@H](CCCNC(=N)N)NC(=O)CNC(=O)[C@H](CCC(=O)O)NC(=O)[C@H](CC(C)C)NC(C)=O)C(C)C)[C@@H](C)CC)[C@@H](C)O)C(N)=O)C(=O)O)C(=O)O)C(=O)O)C(=O)O)C(=O)O [compound 111] (Ac-LEGREKVRAK(Ac)I[Aib][Aib]EGQSTWS[Aib]RKKK([AEEA-AEEA-AEEA-γGlu-γGlu-γGlu-γGlu-γGlu-Stearoyl])-NH2)
– | 86 | CCCCCCCCCCCCCCCCCC(=O)N[C@@H](CCC(=O)N[C@@H](CCC(=O)N[C@@H](CCC(=O)NCCOCCOCC(=O)NCCOCCOCC(=O)NCCCC[C@H](NC(=O)[C@H](CCCCN)NC(=O)[C@H](CCCCN)NC(=O)[C@H](CCCNC(=N)N)NC(=O)C(C)(C)NC(=O)[C@H](CO)NC(=O)[C@H](Cc1c[nH]c2ccccc12)NC(=O)[C@@H](NC(=O)[C@H](CO)NC(=O)[C@H](CCC(N)=O)NC(=O)CNC(=O)[C@H](CCC(=O)O)NC(=O)C(C)(C)NC(=O)C(C)(C)NC(=O)[C@@H](NC(=O)[C@H](CCC(N)=O)NC(=O)[C@H](C)NC(=O)[C@H](CCCNC(=N)N)NC(=O)[C@@H](NC(=O)[C@H](CCCCN)NC(=O)[C@H](CCC(=O)O)NC(=O)[C@H](CCCNC(=N)N)NC(=O)CNC(=O)[C@H](CCC(=O)O)NC(=O)[C@H](CC(C)C)NC(C)=O)C(C)C)[C@@H](C)CC)[C@@H](C)O)C(N)=O)C(=O)O)C(=O)O)C(=O)O [compound 70] (Ac-LEGREKVRAQI[Aib][Aib]EGQSTWS[Aib]RKKK([AEEA-AEEA-γGlu-γGlu-γGlu-Stearoyl])-NH2)
